Results from article PMC3871636 (PLoS ONE, 2013).

What was measured:
[1] = target: T1, double-labeled CYP3A4 (C64/C468)-ER/DY (Homo sapiens, UniProt P08684, S18F, form not given); assay: Steady-state LRET titration (delayed emission); format: binding
Experimental: (§1) All absorbance and fluorescence assays (including the time-resolved fluorescence measurements) were performed at a protein concentration ≤1 µM at 25°C with continuous stirring. Absorbance spectra were recorded with an S2000 rapid scanning CCD spectrometer (Ocean Optics). Ligand binding assays were done in 100 mM Na-Hepes buffer, pH 7.4, containing 0.5 mM EDTA.
(§2) Fluorescence-based ligand binding assays were done under anaerobic conditions. Anaerobiosis was achieved using an oxygen-scavenging system consisting of protecatechuate-3,4-dioxygenase (0.5 units/ml) and 5 mM protocatechuic acid. The steady state and time-resolved phosphorescence measurements were performed with the use of a Cary Eclipse fluorescence spectrophotometer (Varian/Agilent Technologies). The excitation wavelength was set to 540 nm. Spectra were taken from 650 to 860 nm with 100 µs delay.
(§3) Quantitative interpretation of LRET results was also based on the use of PCA applied to a series of emission spectra normalized on integral intensity. […] Intensity of the donor and acceptor fluorescence obtained in this way were used in determination of the efficiency of steady-state LRET using the equation [drawing 1] (Eq.1) where I ad is emission intensity of the acceptor, I da is the residual donor emission in the presence of acceptor (I da), Φ a and Φ d are the quantum yield of the fluorescence of acceptor and the quantum yield of the phosphorescence of donor, respectively.
(§4) Distances were calculated using the equation: [drawing 3] (Eq.3) where R 0 is the Förster distance, and R is the distance between the donor and acceptor. R 0 was calculated with the use of PhotoChemCad software. In these calculations, we used the values of the orientation factor (κ^2) and the refractive index (n) of 0.667 and 1.4, respectively.
(§5) When fitting the results of titration experiments, where the changes in the monitored signal A S (fraction of the enzyme in the high-spin state, intensity or the lifetime of the donor phosphorescence at a given substrate concentration) were assumed to be proportional to [ES], this equation was complemented with the offset A 0 and the scaling factor A max to yield the following relationship: [drawing 5] (Eq.5)

[2] = target: CYP3A4 (double-labeled (C64/C468)-DY/ER) (Homo sapiens, UniProt P08684, form not given/S18F); assay: Steady-state LRET titration (delayed emission); format: binding; conditions: human, purified double-labeled CYP3A4 (C64/C468)-DY/ER protein, pH 7.4; (C64/C468)-DY/ER; LRET titration; read-out: K d, steady-state fluorescence
Experimental: as §1, §2, §3, §4, §5

[3] = target: CYP3A4 (double-labeled (C64/C468)-ER/DY) (Homo sapiens, UniProt P08684, form not given/S18F); assay: Steady-state LRET titration (delayed emission); format: binding; conditions: human, purified double-labeled CYP3A4 (C64/C468)-ER/DY protein, pH 7.4; (C64/C468)-ER/DY; LRET titration; read-out: K d, steady-state fluorescence
Experimental: as §1, §2, §3, §4, §5

[4] = target: T2, double-labeled CYP3A4 C377/C468-DY/ER (Homo sapiens, UniProt P08684, S18F, form not given); assay: Steady-state LRET titration (delayed emission); format: binding; conditions: Table S2, protein C377/C468-ER/DY
Experimental: as §1, §2, §3, §4, §5

[5] = target: T3, double-labeled CYP3A4 (C64/C468)-DY/ER (Homo sapiens, UniProt P08684, S18F, form not given); assay: Steady-state LRET titration (delayed emission); format: binding
Experimental: as §1, §2, §3, §4, §5

[6] = target: T1, double-labeled CYP3A4 (C64/C468)-ER/DY; assay: Time-resolved LRET (phosphorescence lifetime measurements)
From the text: (§6) The excitation wavelength was set to 540 nm.

[7] = target: T2, double-labeled CYP3A4 C377/C468-DY/ER; assay: as above
From the text: as §6

[8] = target: T3, double-labeled CYP3A4 (C64/C468)-DY/ER; assay: as above
From the text: as §6

[9] = target: T4, double-labeled CYP3A4 C64/C121-DY/ER (Homo sapiens, UniProt P08684, A121C/C239S/C377S/C468A/C98S/S18F); assay: as above; conditions: same ligand concentrations
Experimental: as §1, §2
The treatment of the time-resolved decay traces was performed using a bi-exponential approximation. The efficiency of time-resolved LRET was calculated using the equation [drawing 2] (Eq.2)
In this equation τda and τd designate the average lifetime of the excited state of the donor in the presence and absence of the acceptor, respectively. These average lifetimes are determined as τ = α1τ1+α2τ2, where τ1,2 and α1,2 stay for the lifetime and the relative amplitude of each of the two exponential terms. In our calculations of the lifetime in double-labeled C64/C468, C377/C468 and C64/C121 proteins we used the lifetimes of phosphorescence measured with the respective proteins labeled with ERIA at a label:protein ratio 2∶1 as the estimates of τd.
as §4

[10] = target: T4, double-labeled CYP3A4 C64/C121-DY/ER; assay: Steady-state LRET titration (delayed emission); conditions: Table S2; protein C64/C121-ER/DY; same ligand concentrations
Experimental: as §1, §2, §3, §4, §5

[11] = Table S2, C64/C468-ER/DY, 1-PB 40 µM, ANF 100 µM, BCT 2.5 µM, cholesterol 100 µM, testosterone 100 µM
[12] = Table S2, C64/C468-ER/DY, same ligand concentrations
[13] = Table S2, C64/C468-DY/ER, 1-PB 40 µM, ANF 100 µM, BCT 2.5 µM, cholesterol 100 µM, testosterone 100 µM
[14] = Table S2, C64/C468-DY/ER, same ligand concentrations
[15] = (C64/C468)-ER/DY, nearly-saturating ligand: ANF 100 µM, bromocriptine 2.5 µM, cholesterol 50 µM, testosterone 100 µM
[16] = Table S1, (C64/C468)-ER/DY, same ligand concentrations
[17] = Table S1, protein (C377/C468)-ER/DY, same ligand concentrations
[18] = Table S2, protein C377/C468-ER/DY, same ligand concentrations
[19] = (C64/C468)-DY/ER, nearly-saturating ligand: ANF 100 µM, bromocriptine 2.5 µM, cholesterol 50 µM, testosterone 100 µM
[20] = Table S1, (C64/C468)-DY/ER, same ligand concentrations
[21] = Table S1, protein (C64/C121)-ER/DY
[22] = Table S2, protein C64/C121-ER/DY

T2 sequence (P08684 13-503 S18F, form open): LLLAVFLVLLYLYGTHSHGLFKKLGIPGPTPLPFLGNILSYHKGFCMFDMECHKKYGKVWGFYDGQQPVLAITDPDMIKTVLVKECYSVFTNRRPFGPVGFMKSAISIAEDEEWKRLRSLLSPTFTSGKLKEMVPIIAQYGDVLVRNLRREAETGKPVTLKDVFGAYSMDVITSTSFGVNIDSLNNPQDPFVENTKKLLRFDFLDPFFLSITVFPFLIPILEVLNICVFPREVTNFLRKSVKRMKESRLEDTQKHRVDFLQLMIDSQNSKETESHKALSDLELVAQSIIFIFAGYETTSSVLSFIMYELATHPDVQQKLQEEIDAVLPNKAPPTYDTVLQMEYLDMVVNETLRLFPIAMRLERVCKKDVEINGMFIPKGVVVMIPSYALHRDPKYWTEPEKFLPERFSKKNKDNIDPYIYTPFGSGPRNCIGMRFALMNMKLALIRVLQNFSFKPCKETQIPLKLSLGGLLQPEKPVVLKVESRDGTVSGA
T3 sequence (P08684 13-503 S18F, form open): as above
T1 sequence (P08684 13-503 S18F, form open): as above
T4 sequence (P08684 with tags, fused parts or gaps S18F/C98S/A121C/C239S/C377S/C468A limits assumed): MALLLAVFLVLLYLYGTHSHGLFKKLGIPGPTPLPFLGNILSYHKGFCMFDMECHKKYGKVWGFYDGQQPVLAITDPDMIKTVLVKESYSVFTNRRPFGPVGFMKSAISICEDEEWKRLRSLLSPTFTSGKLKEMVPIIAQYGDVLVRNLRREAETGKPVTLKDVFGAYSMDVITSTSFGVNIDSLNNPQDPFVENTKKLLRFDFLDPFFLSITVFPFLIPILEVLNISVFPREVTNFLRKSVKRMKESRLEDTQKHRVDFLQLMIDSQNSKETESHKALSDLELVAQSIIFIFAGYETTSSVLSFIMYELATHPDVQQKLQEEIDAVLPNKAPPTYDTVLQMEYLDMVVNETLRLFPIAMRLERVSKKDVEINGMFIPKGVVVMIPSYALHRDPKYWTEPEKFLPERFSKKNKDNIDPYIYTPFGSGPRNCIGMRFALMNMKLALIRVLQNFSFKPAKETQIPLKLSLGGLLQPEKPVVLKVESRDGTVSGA
Sequence of CYP3A4 (double-labeled (C64/C468)-DY/ER) (P08684 13-503 S18F, form open): as the sequence (P08684 13-503 S18F, form open) above
Sequence of CYP3A4 (double-labeled (C64/C468)-ER/DY) (P08684 13-503 S18F, form open): as above

SMILES: CC(C)CCC[C@@H](C)[C@H]1CC[C@H]2[C@@H]3CC=C4C[C@@H](O)CC[C@]4(C)[C@H]3CC[C@]12C [Cholesterol, cholesterol]
- ΔR (change in interprobe distance), steady-state fluorescence ([1]; (C64/C468)-ER/DY): 3.5±0.7 Å
- ΔE (change in LRET efficiency), steady-state fluorescence ([1]; (C64/C468)-ER/DY, from maximal relative change in donor intensity): −10±5%
- E (LRET efficiency with ligand), steady-state measurements [1, 11]: 19 ± 1%
- R (interprobe distance with ligand), steady-state measurements [1, 12]: 42.6 ± 0.7 Å
- ΔR, steady-state measurements [1, 12]: 3.5 ± 0.7 Å
- Kd [2]: 6.5 ± 1.1 µM
- Kd [3]: 7.7 ± 0.9 µM
- E (LRET efficiency with ligand), steady-state measurements ([4]; 1-PB 40 µM, ANF 100 µM, BCT 2.5 µM, cholesterol 100 µM, testosterone 100 µM): 14 ± 0%
- R (interprobe distance with ligand), steady-state measurements ([4]; same ligand concentrations): 45.2 ± 0.1 Å
- ΔR, steady-state measurements ([4]; same ligand concentrations): 0.5 ± 0.1 Å
- ΔR (change in interprobe distance), steady-state fluorescence ([5]; (C64/C468)-DY/ER): 5.9±2.0 Å
- ΔE (change in LRET efficiency), steady-state fluorescence ([5]; (C64/C468)-DY/ER, from maximal relative change in donor intensity): −11±1%
- E (LRET efficiency with ligand), steady-state measurements [5, 13]: 24 ± 1%
- R (interprobe distance with ligand), steady-state measurements [5, 14]: 40.8 ± 2.0 Å
- ΔR, steady-state measurements [5, 14]: 5.9 ± 2.0 Å
- ΔELT (change in LRET efficiency), lifetime measurements [6, 15]: −16.6±1%
- ΔR (change in interprobe distance), lifetime measurements [6, 15]: 4.8±0.2 Å
- τ1 (phosphorescence decay time with ligand) ([6]; Table S1, (C64/C468)-ER/DY, 1-PB 40 µM, ANF 100 µM, BCT 2.5 µM, cholesterol 100 µM, testosterone 100 µM, bi-exponential fit): 79 ± 1 µs
- F1 (fraction of first exponential) [6, 16]: 53 ± 7%
- τ2 (phosphorescence decay time with ligand) [6, 16]: 268 ± 2 µs
- τav (average phosphorescence lifetime with ligand) [6, 16]: 173 ± 1 µs
- E (LRET efficiency with ligand), lifetime measurements [6, 11]: 26 ± 1%
- R (interprobe distance with ligand), lifetime measurements [6, 12]: 41.1± 0.2 Å
- ΔR, lifetime measurements [6, 12]: 4.8 ± 0.2 Å
- τ1 (phosphorescence decay time with ligand) ([7]; Table S1, protein (C377/C468)-ER/DY, 1-PB 40 µM, ANF 100 µM, BCT 2.5 µM, cholesterol 100 µM, testosterone 100 µM, bi-exponential fit): 38 ± 1 µs
- F1 (fraction of first exponential) [7, 17]: 23 ± 5%
- τ2 (phosphorescence decay time with ligand) [7, 17]: 163 ± 8 µs
- τav (average phosphorescence lifetime with ligand) [7, 17]: 134 ± 3 µs
- E (LRET efficiency with ligand), lifetime measurements ([7]; Table S2, protein C377/C468-ER/DY, 1-PB 40 µM, ANF 100 µM, BCT 2.5 µM, cholesterol 100 µM, testosterone 100 µM): 26 ± 2%
- R (interprobe distance with ligand), lifetime measurements [7, 18]: 41.0 ± 0.6 Å
- ΔR, lifetime measurements [7, 18]: 4.2 ± 0.6 Å
- ΔELT (change in LRET efficiency), lifetime measurements [8, 19]: −5.9±3%
- ΔR (change in interprobe distance), lifetime measurements [8, 19]: 1.6±1.0 Å
- τ1 (phosphorescence decay time with ligand) ([8]; Table S1, (C64/C468)-DY/ER, 1-PB 40 µM, ANF 100 µM, BCT 2.5 µM, cholesterol 100 µM, testosterone 100 µM, bi-exponential fit): 59 ± 1 µs
- F1 (fraction of first exponential) [8, 20]: 43 ± 2%
- τ2 (phosphorescence decay time with ligand) [8, 20]: 221 ± 1 µs
- τav (average phosphorescence lifetime with ligand) [8, 20]: 152 ± 6 µs
- E (LRET efficiency with ligand), lifetime measurements [8, 13]: 35 ± 3%
- R (interprobe distance with ligand), lifetime measurements [8, 14]: 38.3 ± 0.7 Å
- ΔR, lifetime measurements [8, 14]: 1.6 ± 0.7 Å
- F1 (fraction of first exponential) [9, 21]: 44 ± 3%
- τ2 (phosphorescence decay time with ligand) [9, 21]: 222 ± 8 µs
- τav (average phosphorescence lifetime with ligand) [9, 21]: 154 ± 1 µs
- R (interprobe distance with ligand), lifetime measurements [9, 22]: 35.8 ± 0.1 Å
- ΔR, lifetime measurements [9, 22]: 0.8 ± 0.1 Å
- R (interprobe distance with ligand), steady-state measurements [10]: 43.6 ± 0.5 Å
- ΔR, steady-state measurements [10]: 1.0 ± 0.5 Å
